Test results taken from ChEMBL document CHEMBL3885881, “DrugMatrix”.

Species on record: Rattus norvegicus
Assay: DrugMatrix - Regimen: Daily Repeat
Assay type: toxicity, organism-based, Sprague-Dawley
Set-up: regimen Daily Repeat, gender Male, age 6-8 weeks
Conditions: in vivo, ip, route intraperitoneal, vehicle 100 % SALINE; for ABSOLUTE BASOPHIL / ABSOLUTE EOSINOPHIL / ABSOLUTE LYMPHOCYTE / ABSOLUTE MONOCYTE / ABSOLUTE SEGMENTED NEUTROPHIL / BASOPHIL / EOSINOPHIL / ERYTHROCYTE COUNT / HEMATOCRIT / HEMOGLOBIN / LEUKOCYTE COUNT / LYMPHOCYTE / MEAN CORPUSCULAR HEMOGLOBIN / MEAN CORPUSCULAR HEMOGLOBIN CONCENTRATION / MEAN CORPUSCULAR VOLUME / MONOCYTE / NEUTROPHIL / PLATELET COUNT: tissue Blood
[1] = 0 mg/kg, 120 h, dose level Control, time 5 day
[2] = 0 mg/kg, 120 h, tissue Plasma, dose level Control, time 5 day
[3] = 0 mg/kg, […], dose level Control, time 14 day
[4] = 0 mg/kg, […], dose level Control, time 28 day
[5] = 0 mg/kg, […], tissue Plasma, dose level Control, time 14 day
[6] = 0 mg/kg, […], tissue Plasma, dose level Control, time 28 day
[7] = 2 mg/kg, 120 h, dose level High, time 5 day
[8] = 2 mg/kg, 120 h, tissue Plasma, dose level High, time 5 day
[9] = 2 mg/kg, […], dose level High, time 14 day
[10] = 2 mg/kg, […], dose level High, time 28 day

Substance: CADMIUM DICHLORIDE
- ABSOLUTE BASOPHIL [1]: 32 cells/µL
- ABSOLUTE EOSINOPHIL [1]: 110 cells/µL
- ABSOLUTE LYMPHOCYTE [1]: 6630 cells/µL
- ABSOLUTE MONOCYTE [1]: 140 cells/µL
- ABSOLUTE SEGMENTED NEUTROPHIL [1]: 1170 cells/µL
- BASOPHIL [1]: 0.38%
- EOSINOPHIL [1]: 1.28%
- ERYTHROCYTE COUNT [1]: 7.45 x10E6/uL
- HEMATOCRIT [1]: 45.74%
- HEMOGLOBIN [1]: 14.72 G/DL
- LEUKOCYTE COUNT [1]: 8.11 x10E3/uL
- LYMPHOCYTE [1]: 81.3%
- MEAN CORPUSCULAR HEMOGLOBIN [1]: 19.76 pg
- MEAN CORPUSCULAR HEMOGLOBIN CONCENTRATION [1]: 32.16 G/DL
- MEAN CORPUSCULAR VOLUME [1]: 61.38 fL
- MONOCYTE [1]: 1.76%
- NEUTROPHIL [1]: 14.9%
- PLATELET COUNT [1]: 1322.4 x10E3/uL
- ALANINE AMINOTRANSFERASE [2]: 25.8 u/L
- ALBUMIN [2]: 3.64 G/DL
- ASPARTATE AMINOTRANSFERASE [2]: 81.4 u/L
- BLOOD UREA NITROGEN [2]: 14.4 mg/dL
- CHOLESTEROL [2]: 69.2 mg/dL
- CREATINE PHOSPHOKINASE [2]: 303.2 u/L
- CREATININE [2]: 0.56 mg/dL
- GLUCOSE [2]: 125.4 mg/dL
- LACTATE DEHYDROGENASE [2]: 105.4 u/L
- LIPASE [2]: 22.4 u/L
- POTASSIUM [2]: 5.52 MEQ/L
- SODIUM [2]: 147 MEQ/L
- TOTAL BILIRUBIN [2]: 0.2 mg/dL
- TOTAL PROTEIN [2]: 6.1 G/DL
- URIC ACID [2]: 1.06 mg/dL
- ABSOLUTE BASOPHIL [3]: 130 cells/µL
- ABSOLUTE EOSINOPHIL [3]: 140 cells/µL
- ABSOLUTE LYMPHOCYTE [3]: 13500 cells/µL
- ABSOLUTE MONOCYTE [3]: 400 cells/µL
- ABSOLUTE SEGMENTED NEUTROPHIL [3]: 2330 cells/µL
- BASOPHIL [3]: 0.72%
- EOSINOPHIL [3]: 0.86%
- ERYTHROCYTE COUNT [3]: 7.74 x10E6/uL
- HEMATOCRIT [3]: 45.98%
- LEUKOCYTE COUNT [3]: 16.61 x10E3/uL
- LYMPHOCYTE [3]: 81.34%
- MEAN CORPUSCULAR HEMOGLOBIN [3]: 18 pg
- MEAN CORPUSCULAR HEMOGLOBIN CONCENTRATION [3]: 30.22 G/DL
- MEAN CORPUSCULAR VOLUME [3]: 59.4 fL
- MONOCYTE [3]: 2.46%
- NEUTROPHIL [3]: 14.14%
- PLATELET COUNT [3]: 1445.5 x10E3/uL
- ABSOLUTE BASOPHIL [4]: 91 cells/µL
- ABSOLUTE EOSINOPHIL [4]: 110 cells/µL
- ABSOLUTE LYMPHOCYTE [4]: 9910 cells/µL
- ABSOLUTE MONOCYTE [4]: 210 cells/µL
- ABSOLUTE SEGMENTED NEUTROPHIL [4]: 1560 cells/µL
- BASOPHIL [4]: 0.77%
- EOSINOPHIL [4]: 0.92%
- ERYTHROCYTE COUNT [4]: 8.21 x10E6/uL
- HEMATOCRIT [4]: 47.53%
- HEMOGLOBIN [4]: 15.65 G/DL
- LEUKOCYTE COUNT [4]: 11.91 x10E3/uL
- LYMPHOCYTE [4]: 83.34%
- MEAN CORPUSCULAR HEMOGLOBIN [4]: 19.07 pg
- MEAN CORPUSCULAR HEMOGLOBIN CONCENTRATION [4]: 32.93 G/DL
- MEAN CORPUSCULAR VOLUME [4]: 57.9 fL
- MONOCYTE [4]: 1.68%
- NEUTROPHIL [4]: 12.97%
- PLATELET COUNT [4]: 1323.8 x10E3/uL
- ALANINE AMINOTRANSFERASE [5]: 31.6 u/L
- ALBUMIN [5]: 3.66 G/DL
- ALKALINE PHOSPHATASE [5]: 228.6 u/L
- ASPARTATE AMINOTRANSFERASE [5]: 79.6 u/L
- BLOOD UREA NITROGEN [5]: 11.2 mg/dL
- CHLORIDE [5]: 107 MEQ/L
- CHOLESTEROL [5]: 57 mg/dL
- CREATININE [5]: 0.5 mg/dL
- GLUCOSE [5]: 124.4 mg/dL
- LACTATE DEHYDROGENASE [5]: 106.4 u/L
- LIPASE [5]: 24.4 u/L
- PHOSPHORUS [5]: 10.52 mg/dL
- POTASSIUM [5]: 6.34 MEQ/L
- SODIUM [5]: 149.2 MEQ/L
- TOTAL BILIRUBIN [5]: 0.2 mg/dL
- TOTAL PROTEIN [5]: 6.48 G/DL
- URIC ACID [5]: 0.94 mg/dL
- ALANINE AMINOTRANSFERASE [6]: 30 u/L
- ALBUMIN [6]: 3.71 G/DL
- ALKALINE PHOSPHATASE [6]: 186.8 u/L
- ASPARTATE AMINOTRANSFERASE [6]: 78.2 u/L
- BLOOD UREA NITROGEN [6]: 14.2 mg/dL
- CHOLESTEROL [6]: 44.9 mg/dL
- CREATINE PHOSPHOKINASE [6]: 334.3 u/L
- CREATININE [6]: 0.6 mg/dL
- GLUCOSE [6]: 147.2 mg/dL
- LACTATE DEHYDROGENASE [6]: 123.1 u/L
- LIPASE [6]: 9.6 u/L
- PHOSPHORUS [6]: 10.01 mg/dL
- POTASSIUM [6]: 6.57 MEQ/L
- SODIUM [6]: 149.5 MEQ/L
- TOTAL BILIRUBIN [6]: 0.21 mg/dL
- TOTAL PROTEIN [6]: 6.66 G/DL
- URIC ACID [6]: 1.26 mg/dL
- ABSOLUTE BASOPHIL [7]: 82 cells/µL
- ABSOLUTE EOSINOPHIL [7]: 170 cells/µL
- ABSOLUTE LYMPHOCYTE [7]: 6790 cells/µL
- ABSOLUTE MONOCYTE [7]: 750 cells/µL
- ABSOLUTE SEGMENTED NEUTROPHIL [7]: 6.49 CELLS/uL
- BASOPHIL [7]: 0.52%
- EOSINOPHIL [7]: 1.36%
- ERYTHROCYTE COUNT [7]: 7.45 x10E6/uL
- HEMATOCRIT [7]: 43.86%
- HEMOGLOBIN [7]: 14.46 G/DL
- LEUKOCYTE COUNT [7]: 14.43 x10E3/uL
- LYMPHOCYTE [7]: 52.2%
- MEAN CORPUSCULAR HEMOGLOBIN [7]: 19.4 pg
- MEAN CORPUSCULAR HEMOGLOBIN CONCENTRATION [7]: 32.92 G/DL
- MEAN CORPUSCULAR VOLUME [7]: 59.02 fL
- MONOCYTE [7]: 5.12%
- NEUTROPHIL [7]: 39.98%
- PLATELET COUNT [7]: 1991.4 x10E3/uL
- ALANINE AMINOTRANSFERASE [8]: 32 u/L
- ALBUMIN [8]: 3.14 G/DL
- ALKALINE PHOSPHATASE [8]: 100.2 u/L
- ASPARTATE AMINOTRANSFERASE [8]: 134 u/L
- BLOOD UREA NITROGEN [8]: 16.8 mg/dL
- CHOLESTEROL [8]: 54.8 mg/dL
- CREATINE PHOSPHOKINASE [8]: 243.4 u/L
- CREATININE [8]: 0.44 mg/dL
- GLUCOSE [8]: 120.4 mg/dL
- LACTATE DEHYDROGENASE [8]: 161.2 u/L
- LIPASE [8]: 76.6 u/L
- PHOSPHORUS [8]: 11.2 mg/dL
- POTASSIUM [8]: 6.38 MEQ/L
- SODIUM [8]: 146 MEQ/L
- TOTAL BILIRUBIN [8]: 0.2 mg/dL
- TOTAL PROTEIN [8]: 5.32 G/DL
- URIC ACID [8]: 1.7 mg/dL
- ABSOLUTE BASOPHIL [9]: 180 cells/µL
- ABSOLUTE EOSINOPHIL [9]: 86 cells/µL
- ABSOLUTE LYMPHOCYTE [9]: 8270 cells/µL
- ABSOLUTE MONOCYTE [9]: 890 cells/µL
- ABSOLUTE SEGMENTED NEUTROPHIL [9]: 6.16 CELLS/uL
- BASOPHIL [9]: 1.22%
- EOSINOPHIL [9]: 0.6%
- ERYTHROCYTE COUNT [9]: 7.03 x10E6/uL
- HEMATOCRIT [9]: 40.98%
- HEMOGLOBIN [9]: 13.48 G/DL
- LEUKOCYTE COUNT [9]: 15.72 x10E3/uL
- LYMPHOCYTE [9]: 52.14%
- MEAN CORPUSCULAR HEMOGLOBIN [9]: 19.2 pg
- MEAN CORPUSCULAR HEMOGLOBIN CONCENTRATION [9]: 32.92 G/DL
- MEAN CORPUSCULAR VOLUME [9]: 58.34 fL
- MONOCYTE [9]: 5.4%
- NEUTROPHIL [9]: 39.7%
- PLATELET COUNT [9]: 2275.2 x10E3/uL
- ABSOLUTE BASOPHIL [10]: 270 cells/µL
- ABSOLUTE EOSINOPHIL [10]: 150 cells/µL
- ABSOLUTE LYMPHOCYTE [10]: 12500 cells/µL
- ABSOLUTE MONOCYTE [10]: 620 cells/µL
- ABSOLUTE SEGMENTED NEUTROPHIL [10]: 4220 cells/µL
- BASOPHIL [10]: 1.34%
- EOSINOPHIL [10]: 0.93%
- ERYTHROCYTE COUNT [10]: 7.42 x10E6/uL
- HEMATOCRIT [10]: 44.63%
- LEUKOCYTE COUNT [10]: 17.89 x10E3/uL
- LYMPHOCYTE [10]: 68.87%
- MEAN CORPUSCULAR HEMOGLOBIN [10]: 18.83 pg
- MEAN CORPUSCULAR HEMOGLOBIN CONCENTRATION [10]: 31.21 G/DL
- MONOCYTE [10]: 3.41%
